Data: patent publication US11827917B1, “Methods for the conversion of fermentable sugars to ethanol” (Colorado State University Research Foundation, priority 2020, dated 2023)
Marks after values point to notes of the source that are not given here.

Experiments:
Assay type in all cases: cell-based, Saccharomyces cerevisiae
S. cerevisiae JAY 270 [1] = test: Growth test in liquid YNB medium, low/high nitrogen, serum bottles; conditions: 40, 200, 1000 mg/L; low and high nitrogen media
Experimental: A second set of tests was performed in a defined liquid medium, Yeast Nitrogen Base with Glucose (YNB), containing (NH4)2SO4 at either low (1 mM) or high (10 mM) nitrogen content. […] All serum bottles were incubated in a shaker at 30° C. and 150 RPM. Each treatment was performed in biological duplicate. Samples were collected at 0, 5, and 10 hours.

S. cerevisiae JAY 240 = test: Serum-bottle cultivation in YPD, different yeast strains; conditions: 0.2%
Experimental: (§1) Analytical methods: Cell growth was evaluated by monitoring OD600 and cell dry mass concentration. For dry mass measurements, 1.0 mL of culture was transferred to a pre-dried and pre-weighed 2-mL centrifuge tube. The tubes were centrifuged for 10 min at 14000 rpm using a microcentrifuge, and then the cell pellets were dried in an oven for 3 days at 65° C. The cell dry mass was determined by subtracting the initial tube mass from the dried mass of tube with cells. The concentrations of glucose, ethanol, and glycerol were measured via HPLC (Shimadzu LC20A series) outfitted with a refractive index detector and using an Aminex HPX-87H (300×7.8 mm) organic acid column and Cation H+ guard cartridge (Bio Rad Laboratories, Hercules, CA). The column was maintained at 65° C. and the mobile phase was 5 mM sulfuric acid with a flow rate of 0.6 mL/min. Standard compound solutions were used to calibrate the HPLC. Each sample was analyzed three times by HPLC.
(§2) Procedure: Seven yeast strains (S. cerevisiae ATCC 26603, S. cerevisiae JAY 238, S. cerevisiae JAY 240, S. cerevisiae JAY 241, S. paradoxus JAY 1502, S. kudriavzezii JAY 1503, and S. mikatae JAY 1504) were pre-cultured in 30 mL of YPD medium in 100 mL serum bottle overnight in a shaker at 30° C. and 200 rpm. The precultured yeast cells of each strains were collected and washed twice. Finally, the cell pellet was resuspended in about 10 mL 0.8% (w/v) NaCl and the OD600 measured. TyrOH, PheOH, and TrpOH were added to 30 mL of YPD medium in 100-mL serum bottles at 0.2% (w/v) respectively. The same amount of DMSO was added in YPD medium and served as control to the TrpOH and TyrOH treatments. The prepared yeast cells were added to obtain the initial cell concentration at OD600=0.2. The serum bottles were sealed and cultured in a shaker at 30° C. and 200 rpm for 24 h. There were three biological replicates for each treatment.

S. cerevisiae JAY 238 = test: as above; conditions: 0.2%
Experimental: as §1, §2

S. cerevisiae JAY 241 = test: as above; conditions: 0.2%
Experimental: as §1, §2

S. cerevisiae JAY 270 [2] = test: Serum-bottle cultivation in YPD: biomass, glycerol, ethanol yields
Experimental: Procedure: Cultivations in serum bottles were used to determine the effect of the best-performing screened chemicals on the ethanol yield. S. cerevisiae JAY 270 was pre-cultured in 100 mL of YPD medium in 200-mL serum bottles overnight in a shaker at 30° C. and 200 rpm. The precultured yeast cells were collected and washed twice as described above. The cell pellet was resuspended in about 10 mL of 0.8% (w/v) NaCl and the cell concentration was estimated as OD600. TyrOH, PheOH, and TrpOH were added to 30 mL of YPD medium in 100-mL serum bottles at 0.05% and 0.2% respectively. The same amount of DMSO was added to YPD medium to serve as the control for TrpOH and TyrOH treatments. The bottles were inoculated with the prepared yeast cells to obtain an initial cell concentration of OD600=0.2. The serum bottles were sealed and cultured in a shaker at 30° C. and 200 rpm for 24 h. Each condition had three biological replicates.
as §1

[3] = S. cerevisiae JAY 240, YPD (Table 9B)
[4] = S. cerevisiae JAY 238, YPD (Table 9B)
[5] = S. cerevisiae JAY 241, YPD (Table 9B)
[6] = 0.05% (w/v), YPD, serum bottles

SMILES: OCCc1ccc(O)cc1 [TyrOH, Tyrosol]
- Inhibitory effect on yeast cell growth in liquid YNB medium (S. cerevisiae JAY 270 [1]): inhibitory at 1000 mg/L in both media, but not at 40 and 200 mg/L
- Biomass Yield (S. cerevisiae JAY 240; S. cerevisiae JAY 240): 0.061 ± 0.002 g/g
- Biomass yield % change vs. control (S. cerevisiae JAY 240; S. cerevisiae JAY 240): −16* %
- EtOH yield (S. cerevisiae JAY 240; S. cerevisiae JAY 240): 0.446 ± 0.022 g/g
- Glycerol yield (S. cerevisiae JAY 240; S. cerevisiae JAY 240): 0.034 ± 0.001 g/g
- Glycerol yield % change vs. control (S. cerevisiae JAY 240; S. cerevisiae JAY 240): −15* %
- DCW (S. cerevisiae JAY 240; S. cerevisiae JAY 240, YPD): 2.65 mg
- DCW Δ vs. ref (S. cerevisiae JAY 240; S. cerevisiae JAY 240, YPD): 86.9%
- OD600 (S. cerevisiae JAY 240; S. cerevisiae JAY 240, YPD): 2.09
- OD600 Δ vs. ref (S. cerevisiae JAY 240; S. cerevisiae JAY 240, YPD): 83.9%
- Biomass Yield (S. cerevisiae JAY 240; [3]): 0.061 + 0.002 g/g
- Biomass yield Δ vs. ref (S. cerevisiae JAY 240; [3]): −15.7%
- Ethanol yield (S. cerevisiae JAY 240; [3]): 0.446 ± 0.022 g/g
- Ethanol yield Δ vs. ref (S. cerevisiae JAY 240; [3]): 10.1%
- Glycerol yield (S. cerevisiae JAY 240; [3]): 0.034 ± 0.001 g/g
- Glycerol yield Δ vs. ref (S. cerevisiae JAY 240; [3]): −14.77%
- Biomass Yield (S. cerevisiae JAY 238; S. cerevisiae JAY 238): 0.058 ± 0.001 g/g
- Biomass yield % change vs. control (S. cerevisiae JAY 238; S. cerevisiae JAY 238): −14* %
- EtOH yield (S. cerevisiae JAY 238; S. cerevisiae JAY 238): 0.455 ± 0.016 g/g
- EtOH yield % change vs. control (S. cerevisiae JAY 238; S. cerevisiae JAY 238): +8.3* %
- Glycerol yield (S. cerevisiae JAY 238; S. cerevisiae JAY 238): 0.036 ± 0.002 g/g
- Glycerol yield % change vs. control (S. cerevisiae JAY 238; S. cerevisiae JAY 238): −8.3%
- DCW (S. cerevisiae JAY 238; S. cerevisiae JAY 238, YPD): 2.35 mg
- DCW Δ vs. ref (S. cerevisiae JAY 238; S. cerevisiae JAY 238, YPD): 83.9%
- OD600 (S. cerevisiae JAY 238; S. cerevisiae JAY 238, YPD): 1.99
- OD600 Δ vs. ref (S. cerevisiae JAY 238; S. cerevisiae JAY 238, YPD): 85.0%
- Biomass Yield (S. cerevisiae JAY 238; [4]): 0.058 + 0.001 g/g
- Biomass yield Δ vs. ref (S. cerevisiae JAY 238; [4]): −13.9%
- Ethanol yield (S. cerevisiae JAY 238; [4]): 0.455 ± 0.016 g/g
- Ethanol yield Δ vs. ref (S. cerevisiae JAY 238; [4]): 8.3%
- Glycerol yield (S. cerevisiae JAY 238; [4]): 0.036 ± 0.002 g/g
- Glycerol yield Δ vs. ref (S. cerevisiae JAY 238; [4]): −8.30%
- Biomass Yield (S. cerevisiae JAY 241; S. cerevisiae JAY 241): 0.049 ± 0.000 g/g
- Biomass yield % change vs. control (S. cerevisiae JAY 241; S. cerevisiae JAY 241): −16* %
- EtOH yield (S. cerevisiae JAY 241; S. cerevisiae JAY 241): 0.422 ± 0.013 g/g
- Glycerol yield (S. cerevisiae JAY 241; S. cerevisiae JAY 241): 0.043 ± 0.000 g/g
- Glycerol yield % change vs. control (S. cerevisiae JAY 241; S. cerevisiae JAY 241): −23* %
- DCW Δ vs. ref (S. cerevisiae JAY 241; S. cerevisiae JAY 241, YPD): 88.7%
- OD600 (S. cerevisiae JAY 241; S. cerevisiae JAY 241, YPD): 1.68
- OD600 Δ vs. ref (S. cerevisiae JAY 241; S. cerevisiae JAY 241, YPD): 84.0%
- Biomass Yield (S. cerevisiae JAY 241; [5]): 0.049 + 0.000 g/g
- Biomass yield Δ vs. ref (S. cerevisiae JAY 241; [5]): −15.7%
- Ethanol yield (S. cerevisiae JAY 241; [5]): 0.422 ± 0.013 g/g
- Ethanol yield Δ vs. ref (S. cerevisiae JAY 241; [5]): 10.4%
- Glycerol yield (S. cerevisiae JAY 241; [5]): 0.043 ± 0.000 g/g
- Glycerol yield Δ vs. ref (S. cerevisiae JAY 241; [5]): −23.39%
- Biomass Yield (S. cerevisiae JAY 270 [2]; [6]): 0.095 + 0.001 g/g
- Biomass yield % change vs. control (S. cerevisiae JAY 270 [2]; [6]): −5%
- EtOH yield (S. cerevisiae JAY 270 [2]; [6]): 0.38 ± 0.01 g/g
- EtOH yield % change vs. control (S. cerevisiae JAY 270 [2]; [6]): 0.8%
- Glycerol yield (S. cerevisiae JAY 270 [2]; [6]): 0.031 ± 0.001 g/g
- Glycerol yield % change vs. control (S. cerevisiae JAY 270 [2]; [6]): −9%
- Biomass yield vs. reference (S. cerevisiae JAY 270 [2]; 0.05%, YPD, serum bottles): −5.0%
- Ethanol yield (S. cerevisiae JAY 270 [2]; 0.05%, YPD, serum bottles): 0.38 ± 0.01 g/g
- Ethanol yield vs. reference (S. cerevisiae JAY 270 [2]; 0.05%, YPD, serum bottles): 0.8%
- Glycerol yield (S. cerevisiae JAY 270 [2]; 0.05%, YPD, serum bottles): 0.031 ± 0.001 g/g
- Glycerol yield vs. reference (S. cerevisiae JAY 270 [2]; 0.05%, YPD, serum bottles): −9.0%
- OD600 (S. cerevisiae JAY 270 [2]; 0.05%, YPD, serum bottles): 3.66
- Effect on yeast cell growth (S. cerevisiae JAY 270 [2]; 0.2%): reduced yeast cell growth
- Biomass Yield (S. cerevisiae JAY 270 [2]; 0.2% (w/v), YPD, serum bottles): 0.085 + 0.003 g/g
- Biomass yield % change vs. control (S. cerevisiae JAY 270 [2]; 0.2% (w/v), YPD, serum bottles): −15* %
- EtOH yield (S. cerevisiae JAY 270 [2]; 0.2% (w/v), YPD, serum bottles): 0.40 ± 0.00 g/g
- EtOH yield % change vs. control (S. cerevisiae JAY 270 [2]; 0.2% (w/v), YPD, serum bottles): 6.9* %
- Glycerol yield (S. cerevisiae JAY 270 [2]; 0.2% (w/v), YPD, serum bottles): 0.027 ± 0.000 g/g
- Glycerol yield % change vs. control (S. cerevisiae JAY 270 [2]; 0.2% (w/v), YPD, serum bottles): −20* %
- Biomass yield vs. reference (S. cerevisiae JAY 270 [2]; 0.2%, YPD, serum bottles): −15.3%
- Effect on ethanol yield (S. cerevisiae JAY 270 [2]; 0.2%, YPD, serum bottles): increased the ethanol yield significantly
- Ethanol yield (S. cerevisiae JAY 270 [2]; 0.2%, YPD, serum bottles): 0.40 ± 0.00 g/g
- Ethanol yield vs. reference (S. cerevisiae JAY 270 [2]; 0.2%, YPD, serum bottles): 6.9%
- Glycerol yield (S. cerevisiae JAY 270 [2]; 0.2%, YPD, serum bottles): 0.027 ± 0.000 g/g
- Glycerol yield vs. reference (S. cerevisiae JAY 270 [2]; 0.2%, YPD, serum bottles): −19.9%
- OD600 (S. cerevisiae JAY 270 [2]; 0.2%, YPD, serum bottles): 3.27
